In assay [1] the target is T1, partially purified recombinant human LCAD (Homo sapiens, UniProt P28330).
T1 construct: made in house
T1 sequence (P28330 31-430): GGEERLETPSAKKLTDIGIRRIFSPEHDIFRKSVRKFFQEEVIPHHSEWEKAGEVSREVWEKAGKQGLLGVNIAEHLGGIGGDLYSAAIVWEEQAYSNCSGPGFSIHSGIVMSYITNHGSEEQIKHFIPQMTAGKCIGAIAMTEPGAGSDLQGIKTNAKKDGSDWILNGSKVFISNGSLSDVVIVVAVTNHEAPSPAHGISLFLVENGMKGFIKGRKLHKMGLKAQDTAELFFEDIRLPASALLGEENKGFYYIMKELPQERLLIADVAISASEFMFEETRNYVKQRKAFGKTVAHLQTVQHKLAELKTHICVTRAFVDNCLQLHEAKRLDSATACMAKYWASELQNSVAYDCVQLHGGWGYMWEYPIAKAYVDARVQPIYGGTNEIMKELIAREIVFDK
The experiment in a line: ETF fluorescence reduction assay with LCAD. Type of assay: biochemical.

A further assay addresses T2, recombinant human MCAD (Homo sapiens, UniProt P11310).
T2 construct: made in house; host or cells: E. coli JM105, co-expressed with GroEL/GroES
T2 sequence (P11310 26-421): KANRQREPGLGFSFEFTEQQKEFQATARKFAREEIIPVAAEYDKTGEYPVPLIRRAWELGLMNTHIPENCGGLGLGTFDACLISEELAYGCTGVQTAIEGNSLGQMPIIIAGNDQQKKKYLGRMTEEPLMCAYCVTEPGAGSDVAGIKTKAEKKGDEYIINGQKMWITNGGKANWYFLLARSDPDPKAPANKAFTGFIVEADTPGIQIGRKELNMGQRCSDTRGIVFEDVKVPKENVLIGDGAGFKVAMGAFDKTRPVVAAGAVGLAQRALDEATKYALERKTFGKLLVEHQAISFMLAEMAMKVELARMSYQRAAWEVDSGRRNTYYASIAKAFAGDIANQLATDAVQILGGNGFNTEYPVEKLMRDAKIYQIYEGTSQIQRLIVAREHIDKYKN
The experiment in a line: ETF fluorescence reduction assay with purified MCAD (oxidative half-reaction). Type of assay: biochemical. Here is the method: (§1) Purification of Recombinant Human MCAD.
(§2) Expression and purification of recombinant human MCAD was performed as previously described for isovaleryl-CoA dehydrogenase with minor modifications (18). E. coli JM105 cells (Amersham Biosciences Corp; Piscataway, N.J.) containing the human MCAD high expression vector pKeMCAD (19) and a GroEL/GroES expression plasmid were grown overnight in a 200-ml LB broth pre-culture that was used to inoculate 4×2-L cultures in 2-YT broth. The cells were left to grow overnight at 37° C. with shaking and MCAD expression was induced the next morning using IPTG at a final concentration of 0.5 mM for 3 hrs. Cells were harvested by centrifugation and resuspended at 4° C. in 2:1 weight to volume of 100 mM potassium phosphate pH 8.0, 150 mM EDTA. Cells were then lysed by sonication on ice. Including high amounts of EDTA in the cell lysis buffer can protect residues with groups, e.g., cysteine thiols and methionine sulfide groups, vulnerable to modification by oxygen reactive species generated during sonication cell suspension. This was effective in improving enzyme preparations resulting higher specific activity and consistent kinetic behavior. Cellular debris was removed by centrifugation first at 250,000×g for 60 minutes each. […]
(§3) ETF Fluorescence Reduction Assay. […]

Assay [2] addresses T3, purified recombinant human MCAD (Homo sapiens, UniProt P11310).
T3 construct: made in house; host or cells: E. coli JM105, co-expressed with GroEL/GroES
T3 sequence (P11310 26-421): T2 sequence (P11310 26-421)
The experiment in a line: Formation of the charge transfer complex (reductive half-reaction), absorbance at 447/570 nm. Type of assay: binding. The following applies: Stockell plot, substrate:subunit ratio 1:1; enzyme 25.2 μM; anaerobic, pH 8.0; read-out: apparent dissociation constant (KD app). Here is the method:
as §1
Expression and purification of recombinant human MCAD was performed as previously described for isovaleryl-CoA dehydrogenase with minor modifications (18). E. coli JM105 cells (Amersham Biosciences Corp; Piscataway, N.J.) containing the human MCAD high expression vector pKeMCAD (19) and a GroEL/GroES expression plasmid were grown overnight in a 200-ml LB broth pre-culture that was used to inoculate 4×2-L cultures in 2-YT broth. The cells were left to grow overnight at 37° C. with shaking and MCAD expression was induced the next morning using IPTG at a final concentration of 0.5 mM for 3 hrs. Cells were harvested by centrifugation and resuspended at 4° C. in 2:1 weight to volume of 100 mM potassium phosphate pH 8.0, 150 mM EDTA. Cells were then lysed by sonication on ice. […]
Formation of the charge transfer ternary complex was monitored by observing the increase in absorbance at the 570 nm area, concomitant with the decrease of absorbance at 447 nm area, of the purified MCAD in 120 mM potassium phosphate spectrum under anaerobic conditions using a Jasco V-650 Spectrophotometer. […] Ten seconds of equilibration time were allowed after mixing and the sample was scanned for UV/Visible light absorbance at 250 to 800 nm. […] The “apparent” productive-binding constant (Kd app) was calculated with the following equation: […]

Assay [3] concerns extract from fibroblast cells deficient in MCAD (GM07844, homozygous K304E). The experiment in a line: ETF fluorescence reduction assay of cell extract, MCAD deficient fibroblasts. Type of assay: biochemical, human. The conditions noted are these: similar amounts of extract. Here is the method:
(§4) Fibroblast Cell Culture and Extract Preparation.
(§5) Wild type and MCAD deficient cells (homozygous for the K304E mutation) with the designation GM085401 and GM07844, respectively, were obtained form Coriell Institute for Medical Research, Camden, N.J. Cells were cultured in DMEM medium supplemented with glutamine and ampicillin and streptomycin, and 20% fetal bovine serum. Cells were harvested from a T175 flask by sonication with a buffer consisting of 50 mM Tris buffer and 10 mM EDTA, pH 8.0. The cell debris was removed by centrifugation and the cell free extract was assayed for protein and enzyme activity as described below.
(§6) ETF Fluorescence Reduction Assay.
(§7) The ETF reduction assay was performed using a Jasco FP-6300 spectrofluorometer (Easton, Md.) with a cuvette holder heated with circulating water at 32° C. The assay was otherwise performed as described (22), at the indicated substrate concentrations. The enzyme was diluted 1200-fold into a buffer containing 50 mM Tris, pH 8.0, 5 mM EDTA and 50% glycerol, and […] were used for each assay. The ETF concentration in the reaction mixture was 2 μM. Spectra Manager 2 software (Jasco Inc) was used to collect data and calculate reaction rate and Microsoft Excel was used to calculate the kinetic parameters.

Another assay deals with T4, Purified SCAD (Homo sapiens, UniProt P16219).
T4 construct: made in house
T4 sequence (P16219 25-412): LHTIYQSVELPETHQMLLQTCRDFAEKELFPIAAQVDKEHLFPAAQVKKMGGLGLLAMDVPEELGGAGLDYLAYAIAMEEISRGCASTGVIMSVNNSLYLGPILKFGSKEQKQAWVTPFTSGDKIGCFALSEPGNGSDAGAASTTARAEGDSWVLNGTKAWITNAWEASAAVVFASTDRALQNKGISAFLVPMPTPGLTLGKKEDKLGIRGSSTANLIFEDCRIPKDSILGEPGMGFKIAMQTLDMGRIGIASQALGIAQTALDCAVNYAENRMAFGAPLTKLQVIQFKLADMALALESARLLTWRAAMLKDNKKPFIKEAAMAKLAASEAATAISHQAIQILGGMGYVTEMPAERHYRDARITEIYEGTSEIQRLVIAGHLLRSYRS
Briefly: ETF fluorescence reduction assay with SCAD. Type of assay: biochemical. Here is the method:
as §2, with “each. The final supernatant was dialyzed for 4 hours with vigorous stirring in 50 mM potassium phosphate pH 8.0, at 4° C.” for “each.”
as §3

Assay [4] deals with extracts from wild type fibroblast cells (GM085401). Briefly: ETF fluorescence reduction assay of cell extract, wild type fibroblasts. The following applies: 30 μM substrate. Type of assay: biochemical, human. Here is the method: as §4, §5, §6, §7
The target in another assay is T5, Purified ACAD9 (Homo sapiens, UniProt Q9H845).
T5 construct: made in house
T5 sequence (Q9H845 38-621): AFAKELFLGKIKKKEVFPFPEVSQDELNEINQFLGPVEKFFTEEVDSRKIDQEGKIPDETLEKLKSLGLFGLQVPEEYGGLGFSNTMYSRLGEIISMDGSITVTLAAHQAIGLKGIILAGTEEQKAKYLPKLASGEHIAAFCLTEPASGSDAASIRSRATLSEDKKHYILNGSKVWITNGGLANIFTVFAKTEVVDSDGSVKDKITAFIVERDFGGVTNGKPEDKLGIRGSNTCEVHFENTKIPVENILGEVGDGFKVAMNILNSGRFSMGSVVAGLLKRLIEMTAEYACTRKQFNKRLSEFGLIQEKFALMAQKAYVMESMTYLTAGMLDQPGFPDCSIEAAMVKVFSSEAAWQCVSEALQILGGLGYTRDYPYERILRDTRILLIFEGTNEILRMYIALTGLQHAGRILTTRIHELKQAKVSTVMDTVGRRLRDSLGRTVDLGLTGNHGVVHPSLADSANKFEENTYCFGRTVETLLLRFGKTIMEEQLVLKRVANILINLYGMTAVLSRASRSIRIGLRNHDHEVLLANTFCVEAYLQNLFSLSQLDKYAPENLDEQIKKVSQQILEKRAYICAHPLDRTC
The experiment in a line: ETF fluorescence reduction assay with ACAD9. Type of assay: biochemical.

The next assay concerns the target T6, MCAD K304E mutant (Homo sapiens, UniProt P11310, K329E).
T6 sequence (P11310 26-421 K329E): T2 sequence (P11310 26-421) with K304E
The following applies: reported in ref. 27; cited from earlier work.

Molecules are shown by their SMILES. Numbering of substitutions follows the chain as printed.

As for `CCCCCCCCCCCC(=O)SCCNC(=O)CCNC(=O)[C@H](O)C(C)(C)COP(=O)(O)OP(=O)(O)OC[C@H]1O[C@@H](n2cnc3c(N)ncnc32)[C@H](O)[C@@H]1OP(=O)(O)O` [C12-CoA], the “activity of LCAD with substrate” value in assay [1] was “active”.

On to `CC(C)(COP(=O)(O)OP(=O)(O)OC[C@H]1O[C@@H](n2cnc3c(N)ncnc32)[C@H](O)[C@@H]1OP(=O)(O)O)[C@@H](O)C(=O)NCCC(=O)NCCSC(=O)CCCc1ccccc1` [phenylbutyryl-CoA], for which the “activity of MCAD with substrate” value at recombinant human MCAD is recorded as “no activity”. Also, the “activity of LCAD with substrate” value in assay [1] is “not active”. The Kd in assay [2] is 2160 nM. For the same compound, the Enzyme specific activity entry in assay [3] was “No activity”; in assay [4], 3.41 (±0.53) nmoles ETF reduced x min^−1 x mg^−1. Moreover, the “activity of SCAD with substrate” value at Purified SCAD is “no activity”. For the same compound, the “activity of ACAD9 with substrate” value at Purified ACAD9 is “no activity”.

Consider `CCCCCCCCCCCCCCCC(=O)SCCNC(=O)CCNC(=O)[C@H](O)C(C)(C)COP(=O)(O)OP(=O)(O)OC[C@H]1O[C@@H](n2cnc3c(N)ncnc32)[C@H](O)[C@@H]1OP(=O)(O)O` [palmitoyl-CoA], for which the values for the Enzyme specific activity in assay [3] and in assay [4] were 3.91 (±1.34) nmoles ETF reduced x min^−1 x mg^−1 and 9.10 (±2.13) nmoles ETF reduced x min^−1 x mg^−1, respectively.

For the compound `CCCCCCCC(=O)SCCNC(=O)CCNC(=O)[C@H](O)C(C)(C)COP(=O)(O)OP(=O)(O)OC[C@H]1O[C@@H](n2cnc3c(N)ncnc32)[C@H](O)[C@@H]1OP(=O)(O)O` [octanoyl-CoA], the “thermal stability of the MCAD K304E mutant” value at MCAD K304E mutant is “provide thermal stability”. In addition, the Kd in assay [2] is 120 nM. For the same compound, the figures for the Enzyme specific activity result in assay [3] and in assay [4] were “No activity” and 4.01 (±1.34) nmoles ETF reduced x min^−1 x mg^−1, respectively.

As for `CC(C)CCCC(C)C(=O)SCCNC(=O)CCNC(=O)[C@H](O)C(C)(C)COP(=O)(O)OP(=O)(O)OC[C@H]1O[C@@H](n2cnc3c(N)ncnc32)[C@H](O)[C@@H]1OP(=O)(O)O` (stereo partly drawn) [2,6-dimethylheptanoyl-CoA], the “activity of LCAD with substrate” value in assay [1] is on record as “active”.
